Values after ≈ are worked out from the molar mass of the structure shown.
Columns and labels:
solubility in water = type: physicochemical; settings: crystalline forms of Compound I (anhydrous free base)
[1] = relative stability of crystalline forms (turnover experiments); type: physicochemical; settings: for relative phase stability of the crystalline form: relationship between polymorphs of Compound I
Description: Crystalline Form II was produced by re-crystallization of Form I in isopropyl acetate and heptane 1:1 at room temperature. Form II was characterized using XRPD, ssNMR, DSC, TGA and IR. […] 17 hr, IPAc 60° C. for one day, H2O 60° C. over two weeks, three days, NMP-water 1-1 35° C. over three days.

Structure (SMILES) | relative phase stability of the crystalline form [1] | also measured
CS(=O)(=O)n1cc2c(n1)CN([C@H]1CO[C@H](c3cc(F)ccc3F)[C@@H](N)C1)C2 [Compound I, (2R,3S,5R)-2-(2,5-Difluorophenyl)-5-[2-(methylsulfonyl)-2,6-dihydropyrrolo[3,4-c]pyrazol-5(4H)-yl]tetrahydro-2H-pyran-3-amine] | – | solubility (solubility in water): ~2000 µg/mL (≈ 5.02 mM)
CS(=O)(=O)n1cc2c(n1)CN([C@H]1CO[C@H](c3cc(F)ccc3F)[C@@H](N)C1)C2 [Form I, (2R,3S,5R)-2-(2,5-Difluorophenyl)-5-[2-(methylsulfonyl)-2,6-dihydropyrrolo[3,4-c]pyrazol-5(4H)-yl]tetrahydro-2H-pyran-3-amine] | most stable phase above 13 °C | –
CS(=O)(=O)n1cc2c(n1)CN([C@H]1CO[C@H](c3cc(F)ccc3F)[C@@H](N)C1)C2 [Form II, (2R,3S,5R)-2-(2,5-Difluorophenyl)-5-[2-(methylsulfonyl)-2,6-dihydropyrrolo[3,4-c]pyrazol-5(4H)-yl]tetrahydro-2H-pyran-3-amine] | – | conversion of Form II into Form I ([1]; turnover experiments with 50-50 seed: DCM-Heptane 25° C., IPAc 25° C. and 60° C., H2O 60° C., NMP-water 1-1 35° C.): slow but observed in all turnover experiments
CS(=O)(=O)n1cc2c(n1)CN([C@H]1CO[C@H](c3cc(F)ccc3F)[C@@H](N)C1)C2 [Form III, (2R,3S,5R)-2-(2,5-Difluorophenyl)-5-[2-(methylsulfonyl)-2,6-dihydropyrrolo[3,4-c]pyrazol-5(4H)-yl]tetrahydro-2H-pyran-3-amine] | metastable to Form I and II | –
CS(=O)(=O)n1cc2c(n1)CN([C@H]1CO[C@H](c3cc(F)ccc3F)[C@@H](N)C1)C2 [Form IV, (2R,3S,5R)-2-(2,5-Difluorophenyl)-5-[2-(methylsulfonyl)-2,6-dihydropyrrolo[3,4-c]pyrazol-5(4H)-yl]tetrahydro-2H-pyran-3-amine] | metastable to Form I and II | –

— patent US9181262B2, “Crystalline forms of a dipeptidyl peptidase-IV inhibitors” (Merck Sharp & Dohme Corp, priority 2011, dated 2015)
